Measured values published in PMC10574143, “Exploring the Solubility Limits of Edaravone in Neat Solvents and Binary Mixtures: Experimental and Machine Learning Study” (Molecules, 2023).

Assay: solubility data curation, three-parameter van't Hoff consensus
Format: physicochemical
Conditions: methanol, van't Hoff fit to data of refs 21, 26
Excerpt: The dataset characterizing edaravone solubility is an accumulation of values collected from available literature sources augmented with a series of new measurements reported in this paper, which are summarized in Supplementary Section S1. There are three accounts documenting the temperature-dependent solubility of the titled compound in fifteen neat solvents including alcohols, esters, some aprotic solvents, and water. Moreover, nine binary solvent mixtures were used for EDA dissolution measurements at a range of temperatures with a variety of binary compositions. […] First of all, one can notice serious divergences in the reported solubility values for some systems. This inconsistency prohibits the direct use of such a collection for the training of models due to the inherent noise in the dataset, which is a frequently occurring problem intrinsic to diverse measurement protocols. […] Secondly, the solubility space is not represented uniformly due to different numbers of measurements for dissimilar temperature ranges and concentrations of solvent mixtures, which might overrepresent those systems studied more extensively in the dataset. Finally, the main focus in solubility determination was narrowed to polar protic solvents, with very limited representation of non-protic or diprotic solvents. To address the first two issues, the final collection was cured using commonly accepted model equations by fitting their parameters based on experimental mole fractions. Here, the three-parameter van’t Hoff and Jouyban–Acree equations were used for neat and binary solvents, respectively. In addition, temperature standardization was performed for a uniform representation of solubility in the final dataset. […] The complete list of experimental solubility data is provided in the Supporting Materials (see Section S2). As can be directly inferred from the plots presented in Figure 1, incongruences appear not only in the solubility values but also in their temperature trends. […] Since only an arbitrary decision would allow the rejection of either of the measurement series, the final solubility dataset was constructed based on the predictions of the van’t Hoff equation, parametrized using all available experimental data. Moreover, temperature normalization was adopted by accepting data between 0 °C and 50 °C with 5 °C intervals. […] Fortunately, the majority of saturated EDA systems studied suffered experimentally from much smaller deviations, as detailed in the Supplementary Materials (see Section S2.1), and the ones presented in Figure 1 show the worst extremes.
The datasets used for model development underwent curing and unification. All solubility data in neat solvents were analyzed using a simple thermodynamic model relying on the fundamental van’t Hoff equation extended for the temperature dependence of the equilibrium constant by a polynomial fit. The following equation (1) lnxEcur=A+B/T+C/T^2 has three adjustable parameters, the values of which were computed by minimizing root mean square deviations (RMSD) between experimental and computed values. The collection of obtained parameter values for all analyzed systems (including literature data), along with graphical illustrations, is provided in the Supplementary Materials (see Section S2, Table S3 and Figure S2).

## CC1=NN(c2ccccc2)C(=O)C1 [Edaravone, 5-methyl-2-phenyl-4H-pyrazol-3-one]
x2*=1.00, 0 °C
  log(x1consensus): -1.93
x2*=1.00, 5 °C
  log(x1consensus): -1.87
x2*=1.00, 10 °C
  log(x1consensus): -1.80
x2*=1.00, 15 °C
  log(x1consensus): -1.73
x2*=1.00, 20 °C
  log(x1consensus): -1.66
